In patent US4404378A, “2-Substituted or unsubstituted aminocarbonyloxyalkyl-1,4-dihydropyridines” (Banyu Pharmaceutical Co., Ltd., priority 1981, dated 1983):
≈ marks a conversion by molar mass, not a printed value. Read-outs that look alike come from different tables or passages of the source.

Key:
[1] = Acute toxicity, i.v., up-and-down method; conditions: mouse, in vivo, iv
[2] = test system: isolated hearts of rabbits; assay: Coronary vasodilation in isolated rabbit hearts (Langendorff method); conditions: Oryctolagus cuniculus, isolated rabbit heart, dosage required to increase coronary outflow by 50%, read-out: Coronary vasodilation ICD50
Procedure: (a) Coronary vasodilation According to Langendorff method (O. Langendorff; Pflugers arch. ges. phisiol., 61, 291-332 (1895)), the coronary vasodilation effects were tested using isolated hearts of rabbits.

[3] = test system: Beagle dogs; assay: Coronary effects on dogs; assay type: in vivo, dog
Procedure: (c) Coronary effects on dogs Beagle dogs (13 to 16 kg. .male.) were subjected to thoracotomy under anesthesia with sodium pentobarbital, and a probe was attached to the heart left coronary anterior descending artery of each animal, whereupon the coronary blood flow (CF) was measured by an electromagnetic flowmeter. On the other hand, a probe was attached to the exposed right femoral artery, and the femoral artery blood flow (FAF) was measured by an electromagnetic flowmeter. A canule was inserted to the left femoral artery, and the systemic blood pressure (BP) was bloody measured by a transducer. The heart rate (HR) was measured by an electrocardiogram. The sample solution was intravenously injected to the right femoral vein. The coronary blood flow (CF), the femoral artery blood flow (FAF) and the heart rate (HR) were represented by a % increase upon the injection of each sample as compared with the respective control value upon the injection of a saline. […]

Structure (SMILES)	LD50 [1]	EC50 ([2]; Table 1(b))	EC50 ([2]; Table 1(a))	further results
CCOC(=O)C1=C(C)NC(COC(=O)NC2CCCCC2)=C(C(=O)OCCOC)C1c1cccc([N+](=O)[O-])c1 (stereo not drawn) [(14), 2-N--Cyclohexylaminocarbonyloxymethyl-6-methyl-5-ethoxycarbonyl-3-(β-methoxyethoxy)carbonyl-1,4-dihydropyridine]	88 mg/kg	0.35 µg/mL (≈ 0.642 µM)	–	–
COCCOC(=O)C1=C(C)NC(COC(N)=O)=C(C(=O)OCCOC)C1c1ccccc1Cl (stereo not drawn) [(20), 2-Aminocarbonyloxymethyl-6-methyl-4-(2-chlorophenyl)-3,5-bis[(β-methoxyethoxy)carbonyl]-1,4-dihydropyridine]	184 mg/kg	0.36 µg/mL (≈ 0.745 µM)	–	–
CCOC(=O)C1=C(COC(=O)Nc2ccc(Cl)cc2)NC(C)=C(C(=O)OC(C)C)C1c1cccc([N+](=O)[O-])c1 (stereo not drawn) [(21), 2-(4-chlorophenyl)aminocarbonyloxymethyl-6-methyl-4-(3-nitrophenyl)-3-ethoxycarbonyl-5-isopropoxycarbonyl-1,4-dihydropyridine]	83 mg/kg	0.28 µg/mL (≈ 0.502 µM)	–	–
CNC(=O)OCC1=C(C(=O)OC)C(c2cccc([N+](=O)[O-])c2)C(C(=O)OCCN(C)Cc2ccccc2)=C(C)N1 (stereo not drawn) [(16), 2-N--Methylaminocarbonyloxymethyl-6-methyl-4-(3-nitrophenyl)-3-methoxycarbonyl-5-(β-N--methylbenzylaminoethoxy)carbonyl-1,4-dihydropyridine]	146 mg/kg	0.25 µg/mL (≈ 0.452 µM)	–	–
CCCOCCOC(=O)C1=C(C)NC(COC(=O)NC)=C(C(=O)OCCOCCC)C1c1cccc([N+](=O)[O-])c1 (stereo not drawn) [(13), 2-N--Methylaminocarbonyloxymethyl-6-methyl-4-(3-nitrophenyl)-3,5-bis[(β-propoxyethoxy)carbonyl]-1,4-dihydropyridine]	104 mg/kg	0.04 µg/mL (≈ 0.071 µM)	–	–
COC(=O)C1=C(C)NC(C)=C(C(=O)OC)C1c1ccccc1[N+](=O)[O-] [nifedipine, 2,6-Dimethyl-4-(2-nitrophenyl)-3,5-dimethoxycarbonyl-1,4-dihydropyridine]	–	0.22 µg/mL (≈ 0.635 µM)	0.29 µg/mL (≈ 0.837 µM)	BP (systemic blood pressure) % decrease ([3]; 1 μg/kg i.v.): 2%; CF (coronary blood flow) % increase ([3]; 1 μg/kg i.v.): 10%; FAF (femoral artery blood flow) % increase ([3]; 1 μg/kg i.v.): -3%; HR (heart rate) % increase ([3]; 1 μg/kg i.v.): 0.6%; BP (systemic blood pressure) % decrease ([3]; 3 μg/kg i.v.): 10%; CF (coronary blood flow) % increase ([3]; 3 μg/kg i.v.): 48%; FAF (femoral artery blood flow) % increase ([3]; 3 μg/kg i.v.): -4%; HR (heart rate) % increase ([3]; 3 μg/kg i.v.): 2%; BP (systemic blood pressure) % decrease ([3]; 10 μg/kg i.v.): 18%; CF (coronary blood flow) % increase ([3]; 10 μg/kg i.v.): 86%; FAF (femoral artery blood flow) % increase ([3]; 10 μg/kg i.v.): 10%; HR (heart rate) % increase ([3]; 10 μg/kg i.v.): 4%
CCOC(=O)C1=C(C)NC(COC(=O)NC)=C(C(=O)OCC)C1c1ccccc1[N+](=O)[O-] (stereo not drawn) [(6), 2-N--Methylaminocarbonyloxymethyl-6-methyl-4-(2-nitrophenyl)-3,5-diethoxycarbonyl-1,4-dihydropyridine]	30 mg/kg	–	0.45 µg/mL (≈ 1.01 µM)	–
CCOC(=O)C1=C(C)NC(COC(N)=O)=C(C(=O)OCC)C1c1cccc([N+](=O)[O-])c1 (stereo not drawn) [(1)]	207 mg/kg	–	0.24 µg/mL (≈ 0.554 µM)	–
CCCOCCOC(=O)C1=C(C)NC(COC(N)=O)=C(C(=O)OCCOCCC)C1c1cccc([N+](=O)[O-])c1 (stereo not drawn) [(12), 2-Aminocarbonyloxymethyl-6-methyl-4-(3-nitrophenyl)-3,5-bis[(β-propoxyethoxy)carbonyl]-1,4-dihydropyridine]	123 mg/kg	0.15 µg/mL (≈ 0.273 µM)	–	–
CCOC(=O)C1=C(COC(=O)Nc2ccccc2)NC(C)=C(C(=O)OC(C)C)C1c1cccc([N+](=O)[O-])c1 (stereo not drawn) [(22), 2-N--Phenylaminocarbonyloxymethyl-6-methyl-4-(3-nitrophenyl)-3-ethoxycarbonyl-5-isopropoxycarbonyl-1,4-dihydropyridine]	80 mg/kg	0.33 µg/mL (≈ 0.63 µM)	–	–
COC(=O)C1=C(COC(N)=O)NC(C)=C(C(=O)OCCN2CCOCC2)C1c1cccc([N+](=O)[O-])c1 (stereo not drawn) [(18), 2-Aminocarbonyloxymethyl-6-methyl-4-(3-nitrophenyl)-3-methoxycarbonyl-5-(β-morpholinoethoxy)carbonyl-1,4-dihydropyridine]	> 200 mg/kg	1.5 µg/mL (≈ 2.97 µM)	–	–
CCOC(=O)C1=C(C)NC(COC(N)=O)=C(C(=O)OCC)C1c1ccccc1[N+](=O)[O-] (stereo not drawn) [(5), 2-Aminocarbonyloxymethyl-6-methyl-4-(2-nitrophenyl)-3,5-diethoxycarbonyl-1,4-dihydropyridine]	104 mg/kg	–	0.48 µg/mL (≈ 1.11 µM)	–
CCCOCCOC(=O)C1=C(COC(N)=O)NC(C)=C(C(=O)OCCN(C)Cc2ccccc2)C1c1cccc([N+](=O)[O-])c1 (stereo not drawn) [(19), 2-Aminocarbonyloxymethyl-6-methyl-4-(3-nitrophenyl)-3-(β-propoxyethoxy)carbonyl-5-(β-N--methylbenzylaminoethoxy)carbonyl-1,4-dihydropyridine]	168 mg/kg	0.18 µg/mL (≈ 0.295 µM)	–	–
CCCOCCOC(=O)C1=C(COC(N)=O)NC(C)=C(C(=O)OCC)C1c1cccc([N+](=O)[O-])c1 (stereo not drawn) [(11), 2-Aminocarbonyloxymethyl-6-methyl-4-(3-nitrophenyl)-5-ethoxycarbonyl-3-(β-propoxyethoxy)carbonyl-1,4-dihydropyridine]	123 mg/kg	0.25 µg/mL (≈ 0.509 µM)	–	–
COC(=O)C1=C(C)NC(COC(N)=O)=C(C(=O)OC)C1c1cccc([N+](=O)[O-])c1 (stereo not drawn) [(3), 2-Aminocarbonyloxymethyl-6-methyl-4-(3-nitrophenyl)-3,5-dimethoxycarbonyl-1,4-dihydropyridine]	167 mg/kg	–	0.36 µg/mL (≈ 0.888 µM)	–
CCOC(=O)C1=C(COC(=O)NC)NC(C)=C(C(=O)OC(C)C)C1c1cccc([N+](=O)[O-])c1 (stereo not drawn) [(8), 2-N--Methylaminocarbonyloxymethyl-6-methyl-4-(3-nitrophenyl)-3-ethoxycarbonyl-5-isopropoxycarbonyl-1,4-dihydropyridine]	37 mg/kg	–	0.23 µg/mL (≈ 0.498 µM)	–
CCOC(=O)C1=C(COC(N)=O)NC(C)=C(C(=O)OC(C)C)C1c1cccc([N+](=O)[O-])c1 (stereo not drawn) [(7), 2-Aminocarbonyloxymethyl-6-methyl-4-(3-nitrophenyl)-3-ethoxycarbonyl-5-isopropoxycarbonyl-1,4-dihydropyridine]	76 mg/kg	–	0.24 µg/mL (≈ 0.536 µM)	–
COC(=O)C1=C(COC(N)=O)NC(C)=C(C(=O)OCCN(C)Cc2ccccc2)C1c1cccc([N+](=O)[O-])c1 (stereo not drawn) [(15), 2-Aminocarbonyloxymethyl-6-methyl-4-(3-nitrophenyl)-3-methoxycarbonyl-5-(β-N--methylbenzylaminoethoxy)carbonyl-1,4-dihydropyridine]	> 200 mg/kg	0.4 µg/mL (≈ 0.743 µM)	–	–
CCCOCCOC(=O)C1=C(C)NC(COC(N)=O)=C(C(=O)OCC)C1c1cccc([N+](=O)[O-])c1 (stereo not drawn) [(9), 2-Aminocarbonyloxymethyl-6-methyl-4-(3-nitrophenyl)-3-ethoxycarbonyl-5-(β-propoxyethoxy)carbonyl-1,4-dihydropyridine]	136 mg/kg	0.34 µg/mL (≈ 0.692 µM)	–	–
COC(=O)C1=C(COC(N)=O)NC(C)=C(C(=O)OCCN2CCN(C)CC2)C1c1cccc([N+](=O)[O-])c1 (stereo not drawn) [(17), 2-Aminocarbonyloxymethyl-6-methyl-4-(3-nitrophenyl)-3-methoxycarbonyl-5-[β-(4-methyl-1-piperazinyl)ethoxycarbonyl]-1,4-dihydropyridine]	68 mg/kg	2 µg/mL (≈ 3.86 µM)	–	–
CCCOCCOC(=O)C1=C(C)NC(COC(N)=O)=C(C(=O)OCC)C1c1ccccc1[N+](=O)[O-] (stereo not drawn) [(10), 2-Aminocarbonyloxymethyl-6-methyl-4-(2-nitrophenyl)-3-ethoxycarbonyl-5-(β-propoxyethoxy)carbonyl-1,4-dihydropyridine]	84 mg/kg	0.3 µg/mL (≈ 0.61 µM)	–	–
